Counter-ions that a name gives are not always drawn. Like-named read-outs stand apart in the source and are kept apart here.
System: RKO p27 uninduced (proliferating)
Assay: Alamar Blue cell viability assay, anti-proliferative / cytotoxic activity on proliferating RKO cells
Format: cell-based, human
Conditions: for EC50: Homo sapiens, read-out: -log EC50 [mol/l] RKO p27 uninduced (proliferating) (converted)
Description: The anti-proliferative / cytotoxic activity of the compounds described herein can be tested on subclones of RKO human colon adenocarcinoma cells (Schmidt et al., Oncogene 19, 2423-2429; 2000) using the Alamar Blue cell viability assay (described in O'Brien et al. Eur J Biochem 267, 5421-5426, 2000). The compounds are dissolved as 10 mM solutions in DMSO and subsequently diluted in semi-logarithmic steps. DMSO dilutions are further diluted 1:100 v:v into Dulbecco's modified Eagle's medium (DMEM) containing 10% fetal calf serum to a final concentration twice as much as the final concentration in the test. RKO subclones are seeded into 96 well flat bottom plates at a density of 4000 cells per well in a volume of 50 µl per well. 24 hours after seeding the 50 µl each of the compound dilutions in DMEM medium are added into each well of the 96 well plate. Each compound dilution is tested as triplicates. Wells containing untreated control cells are filled with 50 µl DMEM medium containing 1% DMSO. The cells are then incubated with the substances for 72 hours at 37°C in a humidified atmosphere containing 5% carbon dioxide. To determine the viability of the cells, 10 µl of an Alamar Blue solution (Biosource) are added and the fluorescence is measured at an extinction of 544 nm and an emission of 590 nm. For the calculation of the cell viability the emission value from untreated cells is set as 100% viability and the emission rates of treated cells are set in relation to the values of untreated cells. Viabilities are expressed as % values. The Graphpad Prism program is used for the calculation of EC50 values for anti-proliferative / cytotoxic activity out of the obtained dose-response curves. […]

[1] = RKOp27, RKO colon cancer cells, without Ponasterone A, 72 hours incubation, Alamar Blue
[2] = RKO colon cancer cells, without Ponasterone A, 72 hours incubation, Alamar Blue

Compound | EC50 [1] [nM] | also measured
Cc1ccc(C(=O)N(CCCN)C(c2nc3c(Cl)c(C)nn3c(=O)n2Cc2ccccc2)C(C)C)cc1 (racemic) [Example 1, N-(3-Amino-n-propyl)-N-[(RS)-1-(3-benzyl-8-chloro-7-methyl-4-oxo-3,4-dihydro-pyrazolo[1,5-a][1,3,5]triazin-2-yl)-2-methyl-n-propyl]-4-methyl-benzamide hydrochloride] | ≤ 100 | –
Cc1ccc(C(=O)N(CCCN)C(c2nc3c(Cl)c(C)nn3c(=O)n2Cc2ccccc2)C(C)C)cc1 (racemic) [Example 1a, N-(3-Amino-n-propyl)-N-[(RS)-1-(3-benzyl-8-chloro-7-methyl-4-oxo-3,4-dihydro-pyrazolo[1,5-a][1,3,5]triazin-2-yl)-2-methyl-n-propyl]-4-methyl-benzamide] | – | -log EC50 [mol/l] RKO p27 uninduced (proliferating) [2]: -log EC50 [mol/l] RKO p27 uninduced (proliferating) >= 7.0
Cc1ccc(C(=O)N(CCN)C(c2nc3c(Cl)c(C)nn3c(=O)n2Cc2ccccc2)C(C)C)cc1 (racemic) [Example 2, N-(2-Amino-ethyl)-N-[(RS)-1-(3-benzyl-8-chloro-7-methyl-4-oxo-3,4-dihydro-pyrazolo[1,5-a][1,3,5]triazin-2-yl)-2-methyl-n-propyl]-4-methyl-benzamide hydrochloride] | ≤ 100 | –
Cc1ccc(C(=O)N(CCCN)C(c2nc3c(Cl)cnn3c(=O)n2Cc2ccccc2)C(C)C)cc1 (racemic) [Example 4, N-(3-Amino-n-propyl)-N-[(RS)-1-(3-benzyl-8-chloro-4-oxo-3,4-dihydro-pyrazolo[1,5-a][1,3,5]triazin-2-yl)-2-methyl-n-propyl]-4-methyl-benzamide hydrochloride] | ≤ 100 | –
Cc1nn2c(=O)n(Cc3ccccc3)c(C(C(C)C)N(CCCN)C(=O)c3ccc(Cl)cc3)nc2c1Cl (racemic) [Example 5, N-(3-Amino-n-propyl)-N-[(RS)-1-(3-benzyl-8-chloro-7-methyl-4-oxo-3,4-dihydro-pyrazolo[1,5-a][1,3,5]triazin-2-yl)-2-methyl-n-propyl]-4-chloro-benzamide hydrochloride] | ≤ 100 | –
Cc1nn2c(=O)n(Cc3ccccc3)c(C(C(C)C)N(CCCN)C(=O)c3ccc(F)cc3)nc2c1Cl (racemic) [Example 6, N-(3-Amino-n-propyl)-N-[(RS)-1-(3-benzyl-8-chloro-7-methyl-4-oxo-3,4-dihydro-pyrazolo[1,5-a][1,3,5]triazin-2-yl)-2-methyl-n-propyl]-4-fluoro-benzamide hydrochloride] | 100 to 1000 | –
Cc1cccc(C(=O)N(CCCN)C(c2nc3c(Cl)c(C)nn3c(=O)n2Cc2ccccc2)C(C)C)c1 (racemic) [Example 7, N-(3-Amino-n-propyl)-N-[(RS)-1-(3-benzyl-8-chloro-7-methyl-4-oxo-3,4-dihydro-pyrazolo[1,5-a][1,3,5]triazin-2-yl)-2-methyl-n-propyl]-3-methyl-benzamide hydrochloride] | ≤ 100 | –
Cc1nn2c(=O)n(Cc3ccccc3)c(C(C(C)C)N(CCCN)C(=O)c3ccc(Br)cc3)nc2c1Cl (racemic) [Example 8, N-(3-Amino-n-propyl)-N-[(RS)-1-(3-benzyl-8-chloro-7-methyl-4-oxo-3,4-dihydro-pyrazolo[1,5-a][1,3,5]triazin-2-yl)-2-methyl-n-propyl]-4-bromo-benzamide hydrochloride] | ≤ 100 | –
Cc1nn2c(=O)n(Cc3ccccc3)c(C(C(C)C)N(CCCN)C(=O)c3ccc(C(F)(F)F)cc3)nc2c1Cl.Cl (racemic) [Example 9, N-(3-Amino-n-propyl)-N-[(RS)-1-(3-benzyl-8-chloro-7-methyl-4-oxo-3,4-dihydro-pyrazolo[1,5-a][1,3,5]triazin-2-yl)-2-methyl-n-propyl]-trifluoromethyl-benzamide hydrochloride] | – | -log EC50 [mol/l] RKO p27 uninduced (proliferating) [2]: -log EC50 [mol/l] RKO p27 uninduced (proliferating) >= 7.0
Cc1ccc(C(=O)N(CCCN)C(c2nc3cc(OC(F)F)nn3c(=O)n2Cc2ccccc2)C(C)C)cc1 (racemic) [Example 10, N-(3-Amino-n-propyl)-N-{(RS)-1-[3-benzyl-7-(1,1-difluoro-methoxy)-4-oxo-3,4-dihydro-pyrazolo[1,5-a] [1,3,5]triazin-2-yl]-2-methyl-n-propyl}-4-methyl-benzamide hydrochloride] | ≤ 100 | –
Cc1nn2c(=O)n(Cc3ccccc3)c(C(C(C)C)N(CCCN)C(=O)c3ccc(Cl)c(Cl)c3)nc2c1Cl (racemic) [Example 11, N-(3-Amino-n-propyl)-N-[(RS)-1-(3-benzyl-8-chloro-7-methyl-4-oxo-3,4-dihydro-pyrazolo[1,5-a][1,3,5]triazin-2-yl)-2-methyl-n-propyl]-3,4-dichloro-benzamide hydrocloride] | – | EC50 (RKOp27, 72 h): 100 to 1000 nM
Cc1ccc(C(=O)N(CCCN)C(c2nc3c(Cl)c(C)nn3c(=O)n2Cc2ccccc2)C(C)C)c(F)c1.Cl (racemic) [Example 12, N-(3-Amino-n-propyl)-N-[(RS)-1-(3-benzyl-8-chloro-7-methyl-4-oxo-3,4-dihydro-pyrazolo[1,5-a][1,3,5]triazin-2-yl)-2-methyl-n-propyl]-2-fluoro-4-methyl-benzamide hydrocloride] | – | -log EC50 [mol/l] RKO p27 uninduced (proliferating) [2]: -log EC50 [mol/l] RKO p27 uninduced (proliferating) >= 7.0
Cc1ccc(C(=O)N(CCCN)C(c2nc3c(Cl)c(C)nn3c(=O)n2Cc2ccccc2)C(C)C)cc1F.Cl (racemic) [Example 13, N-(3-Amino-n-propyl)-N-[(RS)-1-(3-benzyl-8-chloro-7-methyl-4-oxo-3,4-dihydro-pyrazolo[1,5-a][1,3,5]triazin-2-yl)-2-methyl-n-propyl]-3-fluoro-4-methyl-benzamide hydrocloride] | – | -log EC50 [mol/l] RKO p27 uninduced (proliferating) [2]: -log EC50 [mol/l] RKO p27 uninduced (proliferating) >= 7.0
Cc1nn2c(=O)n(Cc3ccccc3)c(C(C(C)C)N(CCCN)C(=O)c3cccc(Cl)c3Cl)nc2c1Cl (racemic) [Example 14, N-(3-Amino-n-propyl)-N-[(RS)-1-(3-benzyl-8-chloro-7-methyl-4-oxo-3,4-dihydro-pyrazolo[1,5-a][1,3,5]triazin-2-yl)-2-methyl-n-propyl]-2,3-dichloro-benzamide hydrochloride] | 100 to 1000 | –
COc1ccc(C(=O)N(CCCN)C(c2nc3c(Cl)c(C)nn3c(=O)n2Cc2ccccc2)C(C)C)cc1 (racemic) [Example 15, N-(3-Amino-n-propyl)-N-[(RS)-1-(3-benzyl-8-chloro-7-methyl-4-oxo-3,4-dihydro-pyrazolo[1,5-a][1,3,5]triazin-2-yl)-2-methyl-n-propyl]-4-methoxy-benzamide hydrochloride] | ≤ 100 | –
Cc1ccc(C(=O)N(CCCCN)C(c2nc3c(Cl)c(C)nn3c(=O)n2Cc2ccccc2)C(C)C)cc1 (racemic) [Example 16, N-(4-Amino-n-butyl)-N-[(RS)-1-(3-benzyl-8-chloro-7-methyl-4-oxo-3,4-dihydro-pyrazolo[1,5-a][1,3,5]triazin-2-yl)-2-methyl-n-propyl]-4-methyl-benzamide hydrocloride] | – | EC50 (RKOp27, 72 h): 100 to 1000 nM
Cc1ccc(C(=O)N(CCCN)C(c2nc3c(Cl)c(OC(F)F)nn3c(=O)n2Cc2ccccc2)C(C)C)cc1 (racemic) [Example 17, N-(3-Amino-n-propyl)-N-{(RS)-1-[3-benzyl-8-chloro-7-(1,1-difluoro-methoxy)-4-oxo-3,4-dihydro-pyrazolo[1,5-a] [1,3,5]triazin-2-yl]-2-methyl-n-propyl}-4-methyl-benzamide hydrochloride] | ≤ 100 | –
Cc1ccc(C(=O)N(CCCN(C)C)C(c2nc3c(Cl)c(C)nn3c(=O)n2Cc2ccccc2)C(C)C)cc1 (racemic) [Example 19, N-[(RS)-(3-Benzyl-8-chloro-7-methyl-4-oxo-3,4-dihydro-pyrazolo[1,5-a][1,3,5]triazin-2-yl)-methyl-n-propyl]-N-(3-dimethylamino-n-propyl)-4-methyl-benzamide] | – | -log EC50 [mol/l] RKO p27 uninduced (proliferating) [2]: -log EC50 [mol/l] RKO p27 uninduced (proliferating) >= 7.0
COc1cc2nc(C(C(C)C)N(CCCN)C(=O)c3ccc(C)cc3)n(Cc3ccccc3)c(=O)n2n1 (racemic) [Example 20, N-(3-Amino-n-propyl)-N-[(RS)-1-(3-benzyl-7-methoxy-4-oxo-3,4-dihydro-pyrazolo[1,5-a][1,3,5]triazin-2-yl)-2-methyl-n-propyl]-4-methyl-benzamide hydrochlorid] | ≤ 100 | –
COc1nn2c(=O)n(Cc3ccccc3)c(C(C(C)C)N(CCCN)C(=O)c3ccc(C)cc3)nc2c1Cl (racemic) [Example 21, N-(3-Amino-n-propyl)-N-[(RS)-1-(3-benzyl-8-chloro-7-methoxy-4-oxo-3,4-dihydro-pyrazolo[1,5-a][1,3,5]triazin-2-yl)-2-methyl-n-propyl]-4-methyl-benzamide hydrochloride] | ≤ 100 | –

From patent EP2070932A1, “Pyrazolotriazines” (4SC AG, priority 2007, dated 2009)
